Literature values in US6455574B1, “Therapeutic combination” (Pfizer Inc., priority 1997, dated 2002).

How the values were obtained:
calcium channel = conditions: see International Patent Application Number PCT/EP94/02697
[1] = system: smooth muscle cell migration; conditions: see International Patent Application Number PCT/EP95/00847

SMILES | calcium channel blocking activity (calcium channel) | inhibition of smooth muscle cell migration [1]
CCOC(=O)C1=C(COCCN)NC(C)=C(C(=O)OC)[C@H]1c1ccccc1Cl (single isomer, unassigned) [R(+) isomer] | little or no | potent inhibitor
CCOC(=O)C1=C(COCCN)NC(C)=C(C(=O)OC)[C@@H]1c1ccccc1Cl (single isomer, unassigned) [S(−) isomer] | substantially confined to the S(−) isomer | 
